# In patent publication US7897602B2, “Indolinone compounds as kinase inhibitors” (Development Center for Biotechnology, priority 2009, dated 2011):
# Assays:
# [1] = biological target: T1, Aurora A kinase (Homo sapiens, UniProt O14965); experiment: Aurora A kinase assay ([γ-33P]ATP, CHOCKtide substrate); assay type: biochemical
# T1 construct: purchased Upstate
# T1 sequence (O14965 1-403): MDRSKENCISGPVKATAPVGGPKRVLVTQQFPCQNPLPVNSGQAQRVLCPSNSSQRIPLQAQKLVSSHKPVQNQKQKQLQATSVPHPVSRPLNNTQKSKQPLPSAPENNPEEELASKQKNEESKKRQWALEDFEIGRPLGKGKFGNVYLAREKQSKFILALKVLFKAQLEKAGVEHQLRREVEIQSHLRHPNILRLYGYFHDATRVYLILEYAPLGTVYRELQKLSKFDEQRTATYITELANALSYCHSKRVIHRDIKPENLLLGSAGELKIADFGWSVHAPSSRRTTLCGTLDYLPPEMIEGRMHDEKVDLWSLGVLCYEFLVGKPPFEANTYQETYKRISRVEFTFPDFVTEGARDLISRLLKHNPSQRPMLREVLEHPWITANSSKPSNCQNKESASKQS
# Outline: (§1)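 Recombinant Aurora A (1 ng) or Aurora B (2.5 ng) incubated with test compound, CHOCKtide (1 μg) and [γ-33P]ATP/ATP at 10 μM (Aurora A) or 40 μM (Aurora B), 30 min at 33 °C. Stopped with phosphoric acid; filter-bound 33P counted; IC50 = half-maximal inhibition.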
# [2] = tested on: COLO 205 tumor cells; experiment: In vivo anti-cancer activity, COLO 205 subcutaneous tumor model; conditions: COLO 205 s.c. tumors in NOD/SCID mice; i.v. 5, 10 or 20 mg/kg qd × 14
# Experimental: (§2) COLO 205 (1×10^6 cell/mouse) tumor cells were subcutaneously injected into the right flank of 5 week old male NOD/SCID mice (BioLASCO, Taiwan). Tumor volume was measured with a digital caliper once tumor was palpable (within 10 to 15 days after implantation). Compound treatment was started after 1-3 weeks when the tumors had reached an average volume of ˜50 to 100 mm^3. Mice were divided into 5 groups as listed in Table 4 below and were given intravenous injections with test compound at different dosage (5 mg/kg, 10 mg/kg, or 20 mg/kg), SU11248 (20 mg/kg, positive control), or vehicle control (DMSO:Cremophor:PBS (pH 7.4)=[…]) one time every day. The test compound, DCB-70055, was formulated in a solution of 5% DMSO, 10% Cremophor, and 85% PBS. The positive control, SU11248, was dissolved in 100% PBS. Body weights of the mice were measured every two to three days and the tumor sizes in different groups of mice were measured by digital caliper every two to three days.
# [3] = biological target: T2, Flt3 kinase (Homo sapiens, UniProt P36888); experiment: Flt3 kinase assay (33P incorporation into Poly(Glu-Tyr)); assay type: biochemical; conditions: 100 nM test compound; read-out: Inhibition at 100 nM (%) Flt-3
# T2 construct: recombinant N-terminal 6×His-tagged Flt3 kinase domain construct expressed from baculovirus; 6xHis (N); made in house
# T2 sequence (P36888 610-943 limits assumed): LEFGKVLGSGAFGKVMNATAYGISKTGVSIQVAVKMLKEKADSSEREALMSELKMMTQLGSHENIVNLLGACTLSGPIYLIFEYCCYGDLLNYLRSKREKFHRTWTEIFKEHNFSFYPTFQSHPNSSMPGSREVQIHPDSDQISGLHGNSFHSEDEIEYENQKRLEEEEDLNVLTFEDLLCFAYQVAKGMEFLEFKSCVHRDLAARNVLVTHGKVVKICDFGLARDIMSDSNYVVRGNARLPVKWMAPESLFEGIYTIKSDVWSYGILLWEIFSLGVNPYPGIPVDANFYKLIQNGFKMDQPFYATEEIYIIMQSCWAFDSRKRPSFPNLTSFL
# Outline: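 Baculovirus-expressed His-tagged Flt3 kinase domain (5 ng) with Poly(Glu-Tyr) 4:1 substrate, 100 μM ATP plus [33P]-γ-ATP, in MOPS pH 7.0 buffer, 30 min at 30 °C. Compound tested at a single 100 nM concentration; filter-bound radioactivity counted and percent inhibition calculated relative to DMSO control.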
# [4] = biological target: T3, Aurora B kinase (Homo sapiens, UniProt Q96GD4); experiment: Aurora B kinase assay ([γ-33P]ATP, CHOCKtide substrate); assay type: biochemical; conditions: 1.0 μM test compound
# T3 construct: purchased Cell signaling
# T3 sequence (Q96GD4 whole entry): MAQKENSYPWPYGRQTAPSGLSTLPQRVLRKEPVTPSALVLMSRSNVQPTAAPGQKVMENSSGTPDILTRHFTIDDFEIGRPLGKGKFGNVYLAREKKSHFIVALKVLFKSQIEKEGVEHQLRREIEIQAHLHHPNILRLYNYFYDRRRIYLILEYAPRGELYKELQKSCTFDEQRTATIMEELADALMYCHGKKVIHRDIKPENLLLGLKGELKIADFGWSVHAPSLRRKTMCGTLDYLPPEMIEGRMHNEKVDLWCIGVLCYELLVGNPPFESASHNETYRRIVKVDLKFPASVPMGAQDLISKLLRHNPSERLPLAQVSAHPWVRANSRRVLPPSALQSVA
# Outline: as §1
# [5] = Body weight of mice in the COLO 205 tumor study; assay type: in vivo; conditions: NOD/SCID mice with COLO 205 tumors; i.v. 5, 10 or 20 mg/kg qd × 14
# Experimental: as §2
compound,measurement,setting,value
"O=C(O)CCc1c(/C=C2\C(=O)Nc3ccc(F)cc32)[nH]c2c1C(=O)CCC2 [DCB-70055, (Z)-5-fluoro-3-((3-carboxyethyl-4-oxo-4,5,6,7-tetrahydro-1H-indol-2-yl)methylene)indolin-2-one]",IC50,[1],178 nM
same,inhibition at 1 µM,[1]; 1.0 μM test compound,79.8%
same,tumor growth in vivo,[2],inhibited tumor growth in vivo
same,inhibition at 0.1 µM,[3],86.5%
same,inhibition at 1 µM,[4],11.6%
same,weight loss (body weight),[5],without inducing significant weight loss
